The source of these data is ChEMBL document CHEMBL3507680, “University of Dundee, Gates Library screen for HepG2 cell viability”.

This data set in a line: Human HepG2 cell viability assay in 384 well format. It is filed as toxicity, cell-based. Also noted: dose 125 nL, time 70.5 hour; cytotoxicity at 70.5 h: concentration not given beside the values. Particulars: HepG2 cells, read-out: Inhibition.
Take `Cc1nc(C(=O)NCc2ccccn2)cc(C2CCCN2)n1` (stereo not given): the cytotoxicity at 70.5 h came to 20.2%. In the case of `O=C(O)CC(NC(=O)c1ccccc1OC(F)F)c1cccs1` (stereo not given), the cytotoxicity at 70.5 h is 2.5%. With `Cc1ccc(Cl)cc1NC(=O)Cn1cc(C(=O)O)ccc1=O` the figure was 4.77%; with `Cn1ccnc1CNc1c(F)cccc1-n1cccn1`, -7.82%; with `C=C(C)COc1ccccc1CN1CCCC(C(=O)NCCCO)C1` (stereo not given), -8.32%. With `CN(Cc1ccc(-n2cccn2)cc1)c1cc(N)nc(N)n1` the figure was 18.4%; with `Cc1cccc(CN2CCC(Cc3ccccc3F)CC2)n1`, 0.263%. With `CN(Cc1nnc(-c2ccco2)o1)Cc1nc2c(s1)CCCC2` the figure was -11.2%; with `O=C(N1CCCC1)N1CCC2(CC(=O)N(c3ccc4c(c3)OCO4)C2)C1` (stereo not given), -2.04%. On to `CCc1cnc(NCCCOC2CCCC2)nc1`, for which the cytotoxicity at 70.5 h was -16.5%. For the compound `CN1CCN(CCO)C(=O)C12CCN(Cc1ccsc1)CC2`, the cytotoxicity at 70.5 h was -8.5%. Regarding `COc1ccnc(N(C)Cc2ccco2)n1`, the cytotoxicity at 70.5 h was 10.4%. With `Cn1ccnc1C(NCc1ccc(Br)cc1)c1ccccc1` (stereo not given) the figure was -0.0759%; with `Cc1cc2cc(CNC3CCN(CC4CCOC4)CC3)oc2cc1C` (stereo not given), 10.8%; with `CC(=O)N1C[C@H]2CCCC(N3CCN(c4ncccn4)CC3)[C@H]2C1` (stereo not given in full), 11.4%. `CCCc1c(C(=O)N2CCN(c3nccc(OC)n3)CC2)cnn1C`: the cytotoxicity at 70.5 h was -5.72%. To `Cc1ccc(NC(C)C(=O)N(C)Cc2cccc(F)c2)cc1C(N)=O` (stereo not given) belongs -4.3%; to `CCn1cnnc1CNC(=O)N1CCN(CCc2ccccc2)CC1`, -2.4%; to `Cn1cc2c(n1)C(COCC1CC1)CN(Cc1ccsc1)C2` (stereo not given), -3.4%. To `CCOCCN1CCN(Cc2nnc(-c3occc3C)o2)CC1CC` (stereo not given) belongs -5.31%; to `Cc1nc(CN2CCCN(Cc3nccn3C(C)C)CC2)no1`, -15.2%. To `CC(NC(=O)NC1CC1)c1nc(-c2ccccc2)cs1` (stereo not given) belongs -8.69%; to `Cc1ccc(C(=O)NCCSCc2cccs2)cn1`, 12.6%; to `COc1cccc(Oc2nc(C)c(C(=O)O)s2)c1OC`, -13.3%. As to `CC(C)(NCC(=O)N1CCCC(C(N)=O)C1)c1ccc(Cl)cc1` (stereo not given), the cytotoxicity at 70.5 h was -3.83%. On to `CN1CCCN(C(=O)c2cnc(Cc3c(Cl)cccc3Cl)nc2O)CC1`, for which the cytotoxicity at 70.5 h is -3.04%.

Turning to `Cc1ncc(CNC(=O)NC2CCN(C3CCCC3)CC2)s1`, the cytotoxicity at 70.5 h was -6.29%. For `C1CCC(OCCN2CCN(CCOC3CCCCC3)CC2)CC1`, the cytotoxicity at 70.5 h is -5.88%.

For the compound `CCn1cc(CN2CCCN(C(=O)c3ccc(C)nc3)CC2)cn1`, the cytotoxicity at 70.5 h is -6.02%. As for `Cc1ccccc1C(=O)NC1CCN(Cc2ncc(C(C)(C)C)o2)CC1`, the cytotoxicity at 70.5 h was -0.562%. With `CC(C)c1ncc2c(n1)CN(Cc1cccc(OCC(N)=O)c1)CC2` the figure was -7.58%.

Consider `c1ccc(CCN2CCN(C3CCOC4(CCOCC4)C3)CC2)cc1` (stereo not given), for which the cytotoxicity at 70.5 h was -5.08%. As to `CCC[C@@H]1CN(S(=O)(=O)c2ccc(C)c(F)c2)C[C@H]1N(C)C`, the cytotoxicity at 70.5 h came out at 0.773%. Take `CCCN1CCN(S(=O)(=O)c2ccccc2OC)[C@H]2CS(=O)(=O)C[C@H]21`: the cytotoxicity at 70.5 h was -16.5%. With `CN(C)c1ccc(NC(=O)NCc2ccc(Cl)s2)cn1` the figure was -7.08%; with `Cc1nnc2n1CCN(C(=O)C(OC1CCCC1)c1ccccc1)C2` (stereo not given), -1.74%; with `Cn1cnnc1C1CCCN(C(=O)COCc2ccccc2)C1` (stereo not given), -2.8%.

Consider `CC(O)CN1CCC(CNCc2ccc(C#N)cc2)CC1` (stereo not given), for which the cytotoxicity at 70.5 h amounted to 0.277%. Regarding `Cc1noc(C)c1NS(=O)(=O)c1cc(C(=O)O)cc(Cl)c1Cl`, the cytotoxicity at 70.5 h is -4.5%. As for `O=S1(=O)COCCN1Cc1ccc(F)cc1Cl`, the cytotoxicity at 70.5 h was -9.29%.
